Laboratory results taken from PubChem BioAssay AID330 (DTP/NCI, 2004).
Several values for one entry are separate records, joined by “and”; a condition that tells them apart may be missing. Equal values may be shown once. Inconclusive results and toxic doses are left out. How the source made its calls: active means survival T/C of 150% or more; inactive means T/C below 125% in these data.

Test system: P388 leukemia ip, CD2F1 mice, survival T/C
Assay: NCI In Vivo Anticancer Drug Screen. Data for tumor model P388 Leukemia (intraperitoneal) in CD2F1 (CDF1) mice
Conditions: endpoint: median survival time, higher = longer survival
In short: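 Mice carrying the transplanted tumor received test compound or vehicle. Survival was recorded in each group, and the value is the treated-group measurement divided by that of the vehicle-treated control group.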

[1] = dose: 50.0 mg/kg/injection, schedule: Q01DX009 (ip), vehicle: saline with Tween-80
[2] = dose: 100.0 mg/kg/injection, schedule: Q01DX009 (ip), vehicle: saline with Tween-80
[3] = dose: 200.0 mg/kg/injection, schedule: Q01DX009 (ip), vehicle: saline with Tween-80
[4] = dose: 60.0 mg/kg/injection, schedule: Q01DX005 (ip), vehicle: saline with Tween-80
[5] = dose: 120.0 mg/kg/injection, schedule: Q01DX005 (ip), vehicle: saline with Tween-80
[6] = dose: 240.0 mg/kg/injection, schedule: Q01DX005 (ip), vehicle: saline with Tween-80
[7] = dose: 25.0 mg/kg/injection, schedule: Q01DX009 (ip), vehicle: other
[8] = dose: 50.0 mg/kg/injection, schedule: Q01DX009 (ip), vehicle: other
[9] = dose: 100.0 mg/kg/injection, schedule: Q01DX009 (ip), vehicle: other
[10] = dose: 200.0 mg/kg/injection, schedule: Q01DX009 (ip), vehicle: other
[11] = dose: 50.0 mg/kg/injection, schedule: Q01DX009 (ip), vehicle: saline
[12] = dose: 100.0 mg/kg/injection, schedule: Q01DX009 (ip), vehicle: saline
[13] = dose: 200.0 mg/kg/injection, schedule: Q01DX009 (ip), vehicle: saline
[14] = dose: 50.0 mg/kg/injection, schedule: Q01DX005 (ip), vehicle: saline with Tween-80
[15] = dose: 100.0 mg/kg/injection, schedule: Q01DX005 (ip), vehicle: saline with Tween-80
[16] = dose: 200.0 mg/kg/injection, schedule: Q01DX005 (ip), vehicle: saline with Tween-80
[17] = dose: 12.5 mg/kg/injection, schedule: Q01DX009 (ip), vehicle: distilled water + Tween-80
[18] = dose: 50.0 mg/kg/injection, schedule: Q01DX009 (ip), vehicle: distilled water + Tween-80
[19] = dose: 200.0 mg/kg/injection, schedule: Q01DX009 (ip), vehicle: distilled water + Tween-80

Measured: T/C

C1OC2CC1CO2
inactive: [1] 100 % of control | [2] 103 % of control | [3] 103 % of control

COc1ccc(C2OC23Cc2ccccc2C3=O)cc1OC (configuration not stated)
inactive: [1] 109 % of control | [2] 100 % of control | [3] 88 % of control

O=S(=O)(c1ccc(Cl)cc1)N(CCCCN(S(=O)(=O)c1ccc(Cl)cc1)S(=O)(=O)c1ccc(Cl)cc1)S(=O)(=O)c1ccc(Cl)cc1
inactive: [4] 99 % of control | [5] 93 % of control | [6] 90 % of control

OCC1OC(n2cnc3c(=S)nc[nH]c32)C(O)C1O (configuration not stated)
inactive: dose: 25.0 mg/kg/injection, schedule: Q01DX009 (ip), vehicle: saline sonified 95 % of control | dose: 50.0 mg/kg/injection, schedule: Q01DX009 (ip), vehicle: saline sonified 100 % of control | dose: 100.0 mg/kg/injection, schedule: Q01DX009 (ip), vehicle: saline sonified 100 % of control | [2] 100 % of control | [3] 100 % of control | dose: 400.0 mg/kg/injection, schedule: Q01DX009 (ip), vehicle: saline with Tween-80 95 % of control | dose: 800.0 mg/kg/injection, schedule: Q01DX009 (ip), vehicle: saline with Tween-80 109 % of control

CC1(C)CC(C)(OC(=O)c2ccc([N+](=O)[O-])cc2)N=N1 (configuration not stated)
inactive: dose: 12.5 mg/kg/injection, schedule: Q01DX009 (ip), vehicle: other 102 % of control | [7] 97 % of control | [8] 102 % of control | [9] 100 % of control | [10] 101 % of control

CCOC(=O)C1=C(C)NC(C)=C(C(=O)OCC)C1c1ccc(OC)c(OC)c1
inactive: [7] 106 % of control | [8] 103 % of control | [9] 97 % of control | [10] 97 % of control | dose: 400.0 mg/kg/injection, schedule: Q01DX009 (ip), vehicle: other 88 % of control

O=C1/C(=C/c2ccc(F)cc2)SC(=S)N1c1ccc(Cl)c(Cl)c1
inactive: dose: 25.0 mg/kg/injection, schedule: Q01DX009 (ip), vehicle: saline 91 % of control and 95 % of control | [11] 104 % of control and 91 % of control and 94 % of control | [12] 100 % of control and 94 % of control | [13] 108 % of control and 124 % of control and 91 % of control

COc1ccc2ccccc2c1C1=CC(c2ccccc2)C(C(=O)Cc2ccccc2)C(=O)N1 (configuration not stated)
inactive: dose: 100.0 mg/kg/injection, schedule: Q04DX003 (ip), vehicle: saline with Tween-80 101 % of control | dose: 200.0 mg/kg/injection, schedule: Q04DX003 (ip), vehicle: saline with Tween-80 92 % of control | dose: 400.0 mg/kg/injection, schedule: Q04DX003 (ip), vehicle: saline with Tween-80 101 % of control

O=C1C2=C(Nc3cc(Cl)ccc3N2)OC1c1ccccc1Cl (configuration not stated)
inactive: dose: 60.0 mg/kg/injection, schedule: Q01DX005 (ip), vehicle: Klucel (hydroxypropylcellulose) (HPC) 95 % of control | dose: 120.0 mg/kg/injection, schedule: Q01DX005 (ip), vehicle: Klucel (hydroxypropylcellulose) (HPC) 94 % of control | dose: 240.0 mg/kg/injection, schedule: Q01DX005 (ip), vehicle: Klucel (hydroxypropylcellulose) (HPC) 104 % of control

CC(C)=C1C2C=CC1C1C2C(=O)C2OC2(CO)C1O (configuration not stated)
inactive: [14] 100 % of control | [15] 100 % of control | [16] 101 % of control

COc1ccc(NS(=O)(=O)c2ccc(F)cc2)cc1
inactive: [4] 99 % of control | [5] 106 % of control | [6] 106 % of control

CCn1cc(C(=O)O)c(=O)c2cc(F)c(-n3cccc3)cc21
inactive: [4] 101 % of control | [5] 99 % of control | [6] 98 % of control

CCN(CC)c1nc(N(CC)CC)c2[nH]cnc2n1
inactive: dose: 12.5 mg/kg/injection, schedule: Q01DX005 (ip), vehicle: saline with Tween-80 102 % of control | dose: 25.0 mg/kg/injection, schedule: Q01DX005 (ip), vehicle: saline with Tween-80 100 % of control | [14] 98 % of control and 105 % of control | [15] 105 % of control

CN(C)C1=NC(NCCc2ccccc2)(N(C)C)OC(N(C)C)=N1 (configuration not stated)
inactive: dose: 25.0 mg/kg/injection, schedule: Q01DX005 (ip), vehicle: saline 100 % of control | dose: 50.0 mg/kg/injection, schedule: Q01DX005 (ip), vehicle: saline 107 % of control | dose: 100.0 mg/kg/injection, schedule: Q01DX005 (ip), vehicle: saline 100 % of control

CN(C)CC(CN(C)C)C(=O)c1ccc(Oc2ccc(Cl)cc2)cc1
inactive: dose: 1.88 mg/kg/injection, schedule: Q01DX005 (ip), vehicle: saline 110 % of control | dose: 3.75 mg/kg/injection, schedule: Q01DX005 (ip), vehicle: saline 116 % of control | dose: 7.5 mg/kg/injection, schedule: Q01DX005 (ip), vehicle: saline 107 % of control and 112 % of control

Cc1cc(NC(=O)c2ccc(NC(=O)c3ccc(N)cc3)cc2)ccc1N=Nc1ccc2c(O)c(N=Nc3ccc(S(=O)(=O)O)cc3C)c(S(=O)(=O)O)cc2c1
inactive: [14] 104 % of control and 107 % of control and 108 % of control | [15] 105 % of control and 112 % of control and 117 % of control | [16] 107 % of control and 114 % of control | dose: 400.0 mg/kg/injection, schedule: Q01DX005 (ip), vehicle: saline with Tween-80 113 % of control and 119 % of control

CN1CCc2cc(O)c(O)cc2C1Cc1ccc(O)c(O)c1 (configuration not stated)
inactive: [1] 100 % of control | [2] 96 % of control

Cc1ccc(S(=O)(=O)NN=C(C(=O)O)C(=O)O)cc1
inactive: [17] 101 % of control | dose: 25.0 mg/kg/injection, schedule: Q01DX009 (ip), vehicle: distilled water + Tween-80 102 % of control | [18] 100 % of control | [19] 90 % of control

[NH-]CC(=O)O.[NH-]CC(=O)O.[Pt+2]
inactive: dose: 3.13 mg/kg/injection, schedule: Q01DX009 (ip), vehicle: water 97 % of control | dose: 6.25 mg/kg/injection, schedule: Q01DX009 (ip), vehicle: distilled water + Tween-80 119 % of control | dose: 6.25 mg/kg/injection, schedule: Q01DX009 (ip), vehicle: water 90 % of control and 112 % of control | [17] 111 % of control | dose: 12.5 mg/kg/injection, schedule: Q01DX009 (ip), vehicle: water 106 % of control and 110 % of control | dose: 25.0 mg/kg/injection, schedule: Q01DX009 (ip), vehicle: water 100 % of control and 112 % of control | [18] 119 % of control | dose: 50.0 mg/kg/injection, schedule: Q01DX009 (ip), vehicle: water 97 % of control | dose: 100.0 mg/kg/injection, schedule: Q01DX009 (ip), vehicle: distilled water + Tween-80 115 % of control | dose: 100.0 mg/kg/injection, schedule: Q01DX009 (ip), vehicle: water 97 % of control | [19] 98 % of control

CCCCNc1nc(C(F)(F)F)nc2nc[nH]c12
inactive: dose: 50.0 mg/kg/injection, schedule: Q01DX005 (ip), vehicle: Klucel (hydroxypropylcellulose) (HPC) 103 % of control | dose: 100.0 mg/kg/injection, schedule: Q01DX005 (ip), vehicle: Klucel (hydroxypropylcellulose) (HPC) 94 % of control | dose: 200.0 mg/kg/injection, schedule: Q01DX005 (ip), vehicle: Klucel (hydroxypropylcellulose) (HPC) 94 % of control

CCOP(=O)(OCC)C1OCCCO1
inactive: [11] 102 % of control | [12] 98 % of control | [13] 106 % of control

C=CCc1cc2c(cc1C(C)c1ccc(OC)cc1)OCO2 (configuration not stated)
inactive: [14] 106 % of control | [15] 109 % of control | [16] 117 % of control

O=C1C=C(O)CN1C(=O)c1ccc(Cl)cc1
inactive: dose: 50.0 mg/kg/injection, schedule: Q01DX009 (ip), vehicle: Klucel (hydroxypropylcellulose) (HPC) 98 % of control | dose: 100.0 mg/kg/injection, schedule: Q01DX009 (ip), vehicle: Klucel (hydroxypropylcellulose) (HPC) 107 % of control | dose: 200.0 mg/kg/injection, schedule: Q01DX009 (ip), vehicle: Klucel (hydroxypropylcellulose) (HPC) 107 % of control

NC(=S)n1nc(-c2ccccc2)c(N=Nc2ccc([N+](=O)[O-])cc2)c1-c1ccccc1
inactive: dose: 25.0 mg/kg/injection, schedule: Q04DX002 (ip), vehicle: saline with Tween-80 100 % of control | dose: 50.0 mg/kg/injection, schedule: Q04DX002 (ip), vehicle: saline with Tween-80 97 % of control | dose: 100.0 mg/kg/injection, schedule: Q04DX002 (ip), vehicle: saline with Tween-80 87 % of control and 88 % of control | dose: 400.0 mg/kg/injection, schedule: Q04DX002 (ip), vehicle: saline with Tween-80 92 % of control
